What was measured:
Format in all cases: binding, S. equisimilis
[1] = target: T1, RelSeq 1–385 (Streptococcus dysgalactiae subsp. equisimilis, UniProt Q54089); assay: Thermal shift assay on RelSeq 1–385
T1 construct: His-tag (C); host or cells: BL21(DE3) Escherichia coli
Excerpt: Thermal shift is an experimental technique in which protein thermal denaturation is monitored following the increase in fluorescence reported by a protein-bound dye. In particular, an environment-sensitive hydrophobic dye (e.g., SYPRO Orange) binds to hydrophobic regions that become progressively exposed during thermal denaturation, resulting in an increase in its fluorescence emission. Since the binding of small molecules (e.g., fragments) to the protein can cause conformational changes that affect its melting temperature, this technique allows the screening of several compounds in a range of concentrations without consuming sizeable amounts of protein.
We therefore evaluated the affinity of the 18 fragments selected from our in silico screening for the bifunctional protein RelSeq by titration of the protein in a thermal shift assay (Table 1).
(§1) Thermal shift assays on selected fragments vs. RelSeq constructs. The binding of the selected fragments to RelSeq constructs was assessed by titration of the protein in thermal shift assays, performed using a Step One Real-Time PCR system (Thermo Fisher Scientific, Waltham, MA, USA). Assays were performed in 20 mM Tris-HCl, pH 8, containing 150 mM NaCl. The final protein concentration was kept at 0.5 mg/mL for all RelSeq constructs, and the fluorescent Protein Thermal Shift Dye (Thermo Fisher Scientific, Waltham, MA, USA) was used to monitor protein unfolding within the excitation/emission ranges 470–505/540–700 nm. […] Assays were performed in triplicate at a final volume of 15 µL in MicroAmp™ Fast Optical 48-well reaction plates (Thermo Fisher Scientific, Waltham, MA, USA) sealed with adhesive films. Plates were heated from 25 to 90 °C with a heating rate of 0.5 °C/min. The Kd of protein–ligand complexes engaged by RelSeq constructs with the tested fragments was calculated from the plot of protein melting temperature variations as a function of fragment concentrations with the equation for Ligand Binding (1 site) provided with the software GraFit 5.0 (Erithacus Software, Staines, UK).

[2] = target: T2, RelSeq SYNTH (residues 79–385) (Streptococcus dysgalactiae subsp. equisimilis, UniProt Q54089); assay: Thermal shift assay on RelSeq SYNTH; conditions: titration 0.3–10 mM, pH 8
T2 construct: His-tag (C); made in house; host or cells: BL21(DE3) Escherichia coli
Protocol: as §1, with “USA).” for “USA). Assays were performed in 20 mM Tris-HCl, pH 8, containing 150 mM NaCl. The final protein concentration was kept at 0.5 mg/mL for all RelSeq constructs, and the fluorescent Protein Thermal Shift Dye (Thermo Fisher Scientific, Waltham, MA, USA) was used to monitor protein unfolding within the excitation/emission ranges 470–505/540–700 nm.”

[3] = target: T3, RelSeq HYD (residues 1–224) (Streptococcus dysgalactiae subsp. equisimilis, UniProt Q54089); assay: Thermal shift assay on RelSeq HYD; conditions: titration 0.3–10 mM, pH 8
T3 construct: His-tag (C); made in house; host or cells: BL21(DE3) Escherichia coli
Protocol: as §1, with “USA).” for “USA). Assays were performed in 20 mM Tris-HCl, pH 8, containing 150 mM NaCl. The final protein concentration was kept at 0.5 mg/mL for all RelSeq constructs, and the fluorescent Protein Thermal Shift Dye (Thermo Fisher Scientific, Waltham, MA, USA) was used to monitor protein unfolding within the excitation/emission ranges 470–505/540–700 nm.”

[4] = target: T1, RelSeq 1–385; assay: STD-NMR with RelSeq (1–385); conditions: fragment:protein ratio 1000:1; fragment concentration 3 mM
Protocol: (§2) The relatively weak affinity of the fragments measured by TSA directed us towards NMR methods to assess the specificity of the fragments-protein interactions. […] In particular, STD (Saturation Transfer Difference) exploits NOE effects between the protein and the ligand to map target–ligand interactions and to characterize biologically relevant complexes.
(§3) STD-NMR experiments on selected fragments vs. RelSeq constructs. Experiments were performed on a 600 MHz Bruker Avance spectrometer. All experiments were acquired at 298 and 283 K on the free ligands in deuterated phosphate buffer pH 7.4. A DMSO-d6 percentage of about 5% was added to dissolve the fragments. In 1D spectra, water suppression was achieved by excitation sculpting sequence. STD NMR experiments were performed using WATERGATE 3-9-19 pulse sequence for water suppression. On-resonance irradiation of the protein was performed at a chemical shift of −0.05 ppm and 10 ppm; off-resonance irradiation was applied at 200 ppm, where no protein signals were visible. Selective pre-saturation of the protein was achieved by a train of Gauss-shaped pulses of 49 ms in length each. STD spectra were acquired with a saturation time of 2.94 s for all compounds. Blank experiments were conducted in the absence of protein in order to avoid artifacts.

[5] = target: T1, RelSeq 1–385; assay: Tryptophan assay; conditions: read-out: Kd RelSeq 1–385 measured by tryptophan assay (converted)
Excerpt: With the aim of studying protein–ligand interactions between RelSeq constructs and selected fragments, we evaluated the use of different techniques, such as tryptophan assay, microscale thermophoresis (MST), isothermal calorimetry (ITC) or thermal shift assay (TSA). The tryptophan assay is based on ligand-induced conformational changes in the local environment surrounding tryptophan residues in the target protein. Irradiation at 280 nm is followed by the detection of tryptophan fluorescence emission at different wavelengths. We used this technique to measure the Kd values of the natural substrates GDP and ATP (see below), but it is not applicable in the case of fragments due to their high absorbance at 280 nm. On the other hand, the currently available protein-labeling reagents for MST were not compatible with our protein constructs. We chose TSA over ITC due to its higher potential throughput and lower amount of protein required.

[6] = target: T4, RelSeq SYNTH (79–385) (Streptococcus dysgalactiae subsp. equisimilis, UniProt Q54089); assay: STD-NMR with RelSeq SYNTH; conditions: fragment:protein ratio 1000:1; fragment concentration 3 mM
T4 construct: His-tag (C); made in house; host or cells: BL21(DE3) Escherichia coli
Protocol: as §2, §3

[7] = target: T5, RelSeq HYD (1–224) (Streptococcus dysgalactiae subsp. equisimilis, UniProt Q54089); assay: STD-NMR with RelSeq HYD; conditions: fragment:protein ratio 1000:1; fragment concentration 3 mM
T5 construct: His-tag (C); made in house; host or cells: BL21(DE3) Escherichia coli
Protocol: as §2, §3

[8] = thermal shift assay, titration 0.3–10 mM, pH 8

T3 sequence (Q54089 1-224): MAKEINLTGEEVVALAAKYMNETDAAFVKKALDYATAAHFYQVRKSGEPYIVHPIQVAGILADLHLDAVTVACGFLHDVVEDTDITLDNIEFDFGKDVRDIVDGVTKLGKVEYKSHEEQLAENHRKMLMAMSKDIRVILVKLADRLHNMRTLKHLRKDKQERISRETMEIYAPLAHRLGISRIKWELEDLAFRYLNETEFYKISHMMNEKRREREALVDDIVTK
T2 sequence (Q54089 79-385): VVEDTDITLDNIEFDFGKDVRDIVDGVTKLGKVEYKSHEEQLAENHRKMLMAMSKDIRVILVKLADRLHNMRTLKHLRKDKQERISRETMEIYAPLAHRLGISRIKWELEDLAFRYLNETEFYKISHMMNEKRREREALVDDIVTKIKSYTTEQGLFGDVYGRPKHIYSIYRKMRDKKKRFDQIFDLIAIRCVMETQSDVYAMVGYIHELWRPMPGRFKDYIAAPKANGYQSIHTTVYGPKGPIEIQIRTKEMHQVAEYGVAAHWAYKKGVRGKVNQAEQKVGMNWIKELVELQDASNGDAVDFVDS
T1 sequence (Q54089 1-385): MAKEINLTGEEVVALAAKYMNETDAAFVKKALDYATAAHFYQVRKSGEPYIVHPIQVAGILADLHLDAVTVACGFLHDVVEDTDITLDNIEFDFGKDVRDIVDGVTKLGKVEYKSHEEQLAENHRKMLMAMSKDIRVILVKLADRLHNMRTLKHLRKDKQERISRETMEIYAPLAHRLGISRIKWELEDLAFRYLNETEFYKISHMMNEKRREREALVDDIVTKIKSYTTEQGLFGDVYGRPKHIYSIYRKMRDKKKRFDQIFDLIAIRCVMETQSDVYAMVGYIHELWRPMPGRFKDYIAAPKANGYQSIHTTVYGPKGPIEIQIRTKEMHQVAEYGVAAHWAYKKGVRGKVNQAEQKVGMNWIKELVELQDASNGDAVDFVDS
T5 sequence (Q54089 1-224): as the sequence (Q54089 1-224) above
T4 sequence (Q54089 79-385): as the sequence (Q54089 79-385) above

SMILES	Kd RelSeq HYD [3]	Kd [1] [mM]	Kd [2] [mM]	also measured
Nc1c(Cl)cc(Cl)cc1C(=O)O [A2]	No binding			Kd RelSeq 1–385 [1, 8]: No binding; Kd RelSeq SYNTH [2]: No binding; STD-NMR interaction with RelSeq (1–385) [4]: did not show any significant interaction
Nc1ncnc2c1ncn2[C@@H]1O[C@H](COP(=O)(O)OP(=O)(O)OP(=O)(O)O)[C@@H](O)[C@H]1O [ATP, reference compound]				Kd ([1]; thermal shift assay, titration 0.3–10 mM, pH 8, read-out: Kd RelSeq 1–385): 0.49 ± 0.09 mM; Kd [5]: 0.39 mM
O=C(O)c1ccc2[nH]ccc2c1 [I2]	No binding	2.5 ± 0.6	5.5 ± 0.9	
O=C(O)c1cccc2[nH]cnc12 [B3]		3.4 ± 0.3	4.3 ± 0.4	Kd [3]: 3.3 ± 0.9 mM
O=C(O)c1cccc2[nH]ccc12 [I3]	No binding	4 ± 0.5	9.9 ± 4.5	
OCc1ccc2[nH]cnc2c1 [B1]	No binding			Kd RelSeq 1–385 [1, 8]: No binding; Kd RelSeq SYNTH [2]: No binding; STD-NMR interaction with RelSeq (1–385) [4]: did not show any significant interaction
Nc1ccc(F)cc1C(=O)O [A3]	No binding	1.5 ± 0.1	5.5 ± 0.9	
O=C(O)c1ccc2[nH]cnc2c1 [B2]				Kd RelSeq 1–385 [1, 8]: Biphasic; Kd RelSeq SYNTH [2]: No binding; Kd [3]: 1.9 ± 0.7 mM
O=C(O)c1ccc2cc[nH]c2c1 [I1]	No binding	6.5 ± 1.1	9.6 ± 1.5	
CC(C)c1cc(C(=O)O)nc2ncnn12 [TP1]	No binding	3.4 ± 0.8	8.3 ± 1.6	
COc1ccc(C(=O)O)cc1N [A5]	No binding	1.1 ± 0.2	2.2 ± 0.4	
O=C(O)c1ccc2ocnc2c1 [BO1]	No binding	2.2 ± 0.3	2.7 ± 0.6	
Nc1cccc(C(=O)O)c1 [A4]	No binding	6.6 ± 0.1	9.8 ± 2.8	
COc1cc(C(=O)O)ccc1N [A7]	No binding	4 ± 0.9	4.3 ± 0.5	
Nc1ccccc1C(=O)O [A1]	No binding	1.2 ± 0.3	10.8 ± 2.2	STD-NMR interaction with RelSeq (1–385) [4]: good interaction for the aromatic protons; STD-NMR interaction with RelSeq SYNTH (79–385) [6]: Comparable overall STD intensities; STD-NMR interaction with RelSeq HYD (1–224) [7]: did not produce any magnetization transfer
O=C(O)c1cc2nc[nH]c2cc1C(=O)O [B4]	No binding			Kd RelSeq 1–385 [1, 8]: No binding; Kd RelSeq SYNTH [2]: No binding
O=C(O)Cc1c[nH]c2ccc(F)cc12 [I4]	No binding	3.2 ± 0.7	> 15	
O=C(O)c1ccc2nn[nH]c2c1 [BT1]	No binding			Kd RelSeq 1–385 [1, 8]: No binding; Kd RelSeq SYNTH [2]: No binding
Nc1ccc(C(=O)O)c(Cl)c1 [A6]	No binding	4.3 ± 1.1	6.5 ± 1.2	

Reference: PMC9143738, “New Chemotypes for the Inhibition of (p)ppGpp Synthesis in the Quest for New Antimicrobial Compounds” (Molecules, 2022)
